Data: article PMC7069944, “Amino acid levels determine metabolism and CYP450 function of hepatocytes and hepatoma cell lines” (Nature Communications, 2020)
Values joined by “and” are separate entries in the source; they are usually repeats but may differ in a detail not shown here. Equal values may be shown once. Read-outs that look alike come from different tables or passages of the source.

Experiments:
CYP3A4 [1] = target: CYP3A4 (Homo sapiens, UniProt P08684)
Experimental: Comparative CYP450 biotransformation studies were performed to assess functionality across a number of gold standard primary hepatocyte models. Cryopreserved PHHs were obtained from a single donor (Lonza, Breda, The Netherlands) or pooled donors (Thermo Scientific, Merelbeke, Belgium). Upon thawing, cell suspensions (0.5 million cells/ml) were prepared in WE medium using 24-well plates (0.5 ml/well) on an orbital shaker and metabolization activity was assessed following a 15 min equilibration period. Human Hepatopac® plates were obtained from Ascendance Biotechnology (Ascendance Biotechnology, Boston USA) and cultures were maintained following instructions of the provider. Spheroid cultures were generated in-house as essentially described by Bell et al.[42].
Finally, the system was re-equilibrated at 60% (A)/40% (B) for an additional 0.7 min. Total run time was 3.8 min and 2 µl aliquots were injected onto the system for analysis.
All data collection, processing, and analysis was performed with Analyst® software (v1.6.2. SCIEX).

CYP3A4 [2] = assay: qRT-PCR CYP3A4 expression in HepG2; format: cell-based, human; conditions: single amino acid supplementation, relative to CTL (CTL values equal HepG2 D7 CTL)
Experimental: AA supplementation was accomplished through the addition of MEM Non-Essential Amino Acids Solution (100 × ) and MEM Amino Acids Solution (50 × ) (Thermo Scientific) to the culture medium. For AA1, AA2, and AA3 medium, we added respectively 2 ml, 8 ml, and 16 ml of non-essential AA solution and 1 ml, 4 ml, and 8 ml of essential AA solution per 100 ml of LDM, with or without glucose. Culture medium was then made PH neutral through the addition of NaOH. […] PSC derived HLCs were differentiated in LDM until D12. AA supplementation (AA1, AA2 and AA3) was performed from day 12 until day 20, 30 or 40 of differentiation. […] HepG2, HUH7.5, Hep3B, HHL5, and HEK293 cells were maintained in DMEM supplemented with 10% fetal bovine serum as shown in Supplementary Table 4. AA supplementation consisted of addition of 16 ml of non-essential AA mix and 8 ml of essential AA mix per 100 ml of medium and a further addition of 20 g/l of any of the single AAs. […] PHHs were maintained in a medium composition that was based on WE as detailed in ref. [67].
RNA extraction was performed using the GenElute Mammalian Total RNA Miniprep Kit (Sigma-Aldrich). Then, genomic DNA was eliminated using the On-Column DNase I Digestion kit (Sigma-Aldrich). Last, 1 µg of RNA was transcribed to cDNA using the Superscript III First-Strand synthesis (Invitrogen). Gene expression analysis was performed using the Platinum SYBR green qPCR supermix-UDG kit (Invitrogen) in a ViiA 7 Real-Time PCR instrument (Thermo Scientific, Waltham, MA). The sequences of all used qRT-PCR primers are listed in Supplementary Table 6. Of these, ribosomal protein L19 (RPL19) was used as a housekeeping gene for normalization.

[3] = test system: HC6X in the BJ1-iPSC background; assay: Single-exposure toxicity, Hoechst/DRAQ7 live cell number, HC6X (BJ1-iPSC); conditions: Homo sapiens
Experimental: (§1) PSCs were differentiated in a 384-well format. Cells were treated with 14 different concentrations of compounds in 6 repeats. As a negative control, 41 wells were left untreated. HepG2 were seeded at 40,000 cells per well. For control conditions, HepG2 were exposed after 2 days of culture. […] Cells were fixed with 4% PFA. Imaging was done using an Operetta High-Content Imaging System (Perkin Elmer) and image analysis was performed using Harmony software (Perkin Elmer). […] As a positive control, 1 donor of PHHs was seeded at 10,000 cells per well. Drugs were administrated after 8 h of attachment.

HepG2 = assay: Single-exposure toxicity, Hoechst/DRAQ7 live cell number, HepG2; conditions: for IC50: Homo sapiens
Experimental: as §1

[4] = test system: cells cultured in AAGLY medium; assay: Single-exposure toxicity, summary value of this study (Boon et al); format: cell-based; conditions: Homo sapiens, single 24 h exposure
Experimental: To evaluate the ability to predict hepatotoxicity, we adapted the differentiation assays to a 384-well format. […] As a readout, we evaluated cell viability by resazurin conversion and correlated the results to therapeutic doses (Cmax values).
PSCs were differentiated in a 384-well format. […] As a negative control, 41 wells were left untreated. HepG2 were seeded at 40,000 cells per well. […] Cells were fixed with 4% PFA. […] Drugs were administrated after 8 h of attachment.

PHH = test system: PHH; set-up: method as in ref 15 (a number printed in a supplementary file, which may have a reference list of its own: not looked up in the article's list); conditions: 24h, ALT release; cited from earlier work
HLCs = assay: Single-exposure toxicity, Hoechst/DRAQ7 live cell number, HLCs
Experimental: as §1

[5] = test system: Co-culture of PHHs and fibroblasts; set-up: method as in ref 4 (a number printed in a supplementary file, which may have a reference list of its own: not looked up in the article's list); conditions: 24h, ATP; cited from earlier work
Rat hepatocytes = test system: Rat hepatocytes; set-up: method as in ref 17 (a number printed in a supplementary file, which may have a reference list of its own: not looked up in the article's list); conditions: 24h, MTT; cited from earlier work
Cryopreserved PHH = test system: Cryopreserved PHH; set-up: method as in ref 16 (a number printed in a supplementary file, which may have a reference list of its own: not looked up in the article's list); conditions: 48h, ATP; cited from earlier work
Spheroid of PHHs = test system: Spheroid of PHHs; set-up: method as in ref 3 (a number printed in a supplementary file, which may have a reference list of its own: not looked up in the article's list); conditions: 48h, ATP; cited from earlier work
PHHs = assay: Single-exposure toxicity, Hoechst/DRAQ7 live cell number, PHH 12 h; conditions: Homo sapiens, read-out: IC50 single exposure, Mean
Experimental: as §1

[6] = test system: HC6X in the H9-ESC background; assay: Single-exposure toxicity, Hoechst/DRAQ7 live cell number, HC6X (H9-ESC); conditions: for IC50: Homo sapiens
Experimental: as §1

[7] = test system: Co-culture of endothelial cells and mouse hepatocytes; set-up: method as in ref 12 (a number printed in a supplementary file, which may have a reference list of its own: not looked up in the article's list); conditions: 36h, Cell count; cited from earlier work
CYP3A4 [8] = assay: CYP3A4-dependent BFC metabolization (fluorometric probe); format: in vitro ADME, human; conditions: for BFC metabolisation: Figure 2B, replicate values; for BFC metabolisation (pmol/h/1000000cells): Figure 1D
Experimental: Urea concentrations in the medium were analyzed after 24 h of culture using the QuantiChromTM Urea Assay Kit (BioAssay Systems DIUR-500) according to the manufacturer’s instructions. […] Metabolization was assessed for 1 h and 4 h incubation times. […] The albumin secretion rate was quantified using the human albumin ELISA quantification kit (Bethyl) according to instructions provided in the kit.

Chain of CYP3A4 (Homo sapiens, UniProt P08684) (P08684 whole entry): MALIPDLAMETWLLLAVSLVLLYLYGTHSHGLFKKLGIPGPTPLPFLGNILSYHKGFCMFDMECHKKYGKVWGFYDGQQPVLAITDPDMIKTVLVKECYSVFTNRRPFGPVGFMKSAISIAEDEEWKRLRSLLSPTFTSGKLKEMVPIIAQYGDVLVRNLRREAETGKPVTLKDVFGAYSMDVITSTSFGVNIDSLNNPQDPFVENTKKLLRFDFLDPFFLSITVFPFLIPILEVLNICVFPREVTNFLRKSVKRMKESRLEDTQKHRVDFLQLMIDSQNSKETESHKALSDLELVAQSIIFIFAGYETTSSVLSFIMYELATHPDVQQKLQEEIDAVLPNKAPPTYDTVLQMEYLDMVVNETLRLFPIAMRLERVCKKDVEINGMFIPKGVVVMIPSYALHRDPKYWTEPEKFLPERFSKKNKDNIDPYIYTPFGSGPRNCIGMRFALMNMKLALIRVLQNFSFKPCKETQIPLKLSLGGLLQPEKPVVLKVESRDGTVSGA

OCc1ncc2n1-c1ccc(Cl)cc1C(c1ccccc1F)=NC2 [1-OH midazolam]
1-OH midazolam formation (drug biotransformation cocktail) (CYP3A4 [1]; HepG2 AAGLY D32): 5.9655 and 7.1394 and 9.0214 | 1-OH midazolam formation (drug biotransformation cocktail) (CYP3A4 [1]; Hepatopac): 23.2481 and 33.0328 and 45.6546 | 1-OH midazolam formation (drug biotransformation cocktail) (CYP3A4 [1]; PHH1): 5.4616 and 6.486

OCc1ncc2n1-c1ccc(Cl)cc1C(c1ccccc1F)=NC2 [10H-midazolam]
Stable 10H-midazolam metabolisation rate (CYP3A4 [1]; HC6X AAGLY D40, D46): 371.429 ng/h/100 000 cells and 443.182 ng/h/100 000 cells and 446.97 ng/h/100 000 cells | Stable 10H-midazolam metabolisation rate (CYP3A4 [1]; HC6X AAGLY D40, D48): 353.788 ng/h/100 000 cells and 537.879 ng/h/100 000 cells and 462.121 ng/h/100 000 cells | Stable 10H-midazolam metabolisation rate (CYP3A4 [1]; HepG2 AAGLY D30, column head D40): 79.0741 ng/h/100 000 cells and 82.3438 ng/h/100 000 cells and 89.7887 ng/h/100 000 cells | Stable 10H-midazolam metabolisation rate (CYP3A4 [1]; HepG2 AAGLY D30, column head D42): 185 ng/h/100 000 cells and 122.333 ng/h/100 000 cells and 146.406 ng/h/100 000 cells | Stable 10H-midazolam metabolisation rate (CYP3A4 [1]; HepG2 AAGLY D30, column head D46): 133.654 ng/h/100 000 cells and 137.308 ng/h/100 000 cells and 133.846 ng/h/100 000 cells | Stable 10H-midazolam metabolisation rate (CYP3A4 [1]; HepG2 AAGLY D30, column head D48): 133.333 ng/h/100 000 cells and 151.667 ng/h/100 000 cells and 136.296 ng/h/100 000 cells | Stable 10H-midazolam metabolisation rate (CYP3A4 [1]; HepG2 AAGLY D30, column head D50): 105 ng/h/100 000 cells and 107.963 ng/h/100 000 cells and 103.75 ng/h/100 000 cells

C[C@H](N)C(=O)O [ALA, alanine]
Relative CYP3A4 expression (CYP3A4 [2]): 353.956 and 394.102 and 280.416

CC(=O)Nc1ccc(O)cc1 [APAP, acetaminophen]
IC50 ([3]; read-out: IC50 single exposure, Mean, BJ1 HC6X AAGLY D40): 12 mM | IC50 ([3]; read-out: IC50 single exposure, Mean, BJ1 HC6X AAGLY D50): 8.66 mM | IC50 single exposure, Mean (HepG2; HepG2 CTL D7): no toxicity | toxicity after single administration (HepG2; HepG2 cultured in basal medium): no toxicity | IC50 (HepG2; HepG2, read-out: IC50 single exposure, Mean, HepG2 AAGLY D30): 11.9 mM | IC50 (HepG2; HepG2, read-out: IC50 single exposure, Mean, HepG2 AAGLY D40): 12 mM | IC50 [4]: 10 mM | IC50 (PHH): ~10 mM | IC50 single exposure, Mean (HLCs; H9 HLC AAGLY D40): No toxicity | IC50 single exposure, Mean (HLCs; H9 HLC LDM D40): No toxicity | toxicity after single administration (HLCs; HLC cultured in basal medium): no toxicity | IC50 [5]: 5.5 mM | IC50 (Rat hepatocytes): 7.6 mM | IC50 (Cryopreserved PHH): > 25 mM | IC50 (Spheroid of PHHs): 10 mM | IC50 (PHHs): 13.3 mM | toxicity after single administration ([6]; HC6X cultured in basal medium): no toxicity | IC50 ([6]; read-out: IC50 single exposure, Mean, H9 HC6X AAGLY D40): 12.1 mM | IC50 ([6]; read-out: IC50 single exposure, Mean, H9 HC6X AAGLY D50): 9.91 mM | IC50 [7]: 7 mM

O=c1cc(C(F)(F)F)c2ccc(OCc3ccccc3)cc2o1 [BFC, 7-benzyloxy-4-trifluoromethylcoumarin]
relative BFC metabolsiation (compared to PHH 0h) (CYP3A4 [8]; HC3X AAGLY D20): 13.5398 and 11.6179 and 10.8677 | relative BFC metabolsiation (compared to PHH 0h) (CYP3A4 [8]; HC3X AAGLY D40): 91.111 and 105.714 and 91 | relative BFC metabolsiation (compared to PHH 0h) (CYP3A4 [8]; HC3X AAGLY D50): 143.333 and 136.667 and 101.19 | BFC metabolisation (CYP3A4 [8]; HC3X D20): 21.4494 pmol/h/1000000 cells and 25.0015 pmol/h/1000000 cells and 28.2425 pmol/h/1000000 cells | relative BFC metabolsiation (compared to PHH 0h) (CYP3A4 [8]; HC3X LDM D20): 1.9009 and 2.216 and 2.503 | relative BFC metabolsiation (compared to PHH 0h) (CYP3A4 [8]; HLC AAGLY D20): 5.305 and 4.4 and 6.066 | BFC metabolisation (pmol/h/1000000cells) (CYP3A4 [8]; HLC D20): 11.7761 pmol/h/1000000cells and 11.0043 pmol/h/1000000cells and 15.6069 pmol/h/1000000cells | BFC metabolisation (CYP3A4 [8]; HLC D20): 11.7761 pmol/h/1000000 cells and 11.0043 pmol/h/1000000 cells and 15.6069 pmol/h/1000000 cells | relative BFC metabolsiation (compared to PHH 0h) (CYP3A4 [8]; HLC LDM D20): 1.044 and 0.9752 and 0.9879 | relative BFC metabolsiation (compared to PHH 0h) (CYP3A4 [8]; HLC LDM D40): 4.464 and 8.743 and 7.646 | relative BFC metabolsiation (compared to PHH 0h) (CYP3A4 [8]; PHH 0h): 101.025 and 82.5131 and 116.462 | BFC metabolisation (pmol/h/1000000cells) (CYP3A4 [8]; PHH 0h): 1139.95 pmol/h/1000000cells and 931.065 pmol/h/1000000cells and 1314.14 pmol/h/1000000cells | BFC metabolisation (CYP3A4 [8]; PHH 0h): 1139.95 pmol/h/1000000 cells and 1031.07 pmol/h/1000000 cells and 1214.14 pmol/h/1000000 cells | relative BFC metabolsiation (compared to PHH 0h) (CYP3A4 [8]; PHH 12h): 9.941 and 9.524 | BFC metabolisation (pmol/h/1000000cells) (CYP3A4 [8]; PHH 12h): 112.17 pmol/h/1000000cells and 107.467 pmol/h/1000000cells and 156.494 pmol/h/1000000cells | BFC metabolisation (CYP3A4 [8]; PHH 12h): 112.17 pmol/h/1000000 cells and 107.467 pmol/h/1000000 cells and 156.494 pmol/h/1000000 cells
